The values below come from ChEMBL document CHEMBL1914295, “Synthesis and biological evaluation of some novel triazol-3-ones as antimicrobial agents” (2011).

Format in all cases: functional
What all share (details): read-out: IZ

In experiment [1] the test system is Staphylococcus aureus. The experiment in a line: Antibacterial activity against Staphylococcus aureus at 200 ug/ml after 24 hrs by disc diffusion method.
For experiment [2], the system named is Bacillus subtilis. The experiment in a line: Antibacterial activity against Bacillus subtilis at 100 ug/ml after 24 hrs by disc diffusion method. In general terms: In agar diffusion tests the substance spreads into inoculated agar from a disc or well.
The subject of experiment [3] is Staphylococcus aureus. The experiment can be described thus: Antibacterial activity against Staphylococcus aureus at 100 ug/ml after 24 hrs by disc diffusion method.
The test system of experiment [4] is Bacillus subtilis. The experiment can be described thus: Antibacterial activity against Bacillus subtilis at 200 ug/ml after 24 hrs by disc diffusion method.
Experiment [5] has as its system Escherichia coli. The experiment can be described thus: Antibacterial activity against Escherichia coli at 100 ug/ml after 24 hrs by disc diffusion method.
For experiment [6], the system named is Escherichia coli. The experiment in a line: Antibacterial activity against Escherichia coli at 200 ug/ml after 24 hrs by disc diffusion method.
Experiment [7] deals with Klebsiella pneumoniae. The experiment in a line: Antibacterial activity against Klebsiella pneumoniae at 100 ug/ml after 24 hrs by disc diffusion method.
For experiment [8], the system named is Klebsiella pneumoniae. The experiment in a line: Antibacterial activity against Klebsiella pneumoniae at 200 ug/ml after 24 hrs by disc diffusion method.
Experiment [9] relates to Fusarium solani. The experiment can be described thus: Antifungal activity against Fusarium solani at 100 ug/ml after 48 hrs by disc diffusion method.
Experiment [10] has as its system Fusarium solani. The experiment can be described thus: Antifungal activity against Fusarium solani at 200 ug/ml after 48 hrs by disc diffusion method.
Experiment [11] concerns Aspergillus niger. The experiment can be described thus: Antifungal activity against Aspergillus niger at 100 ug/ml after 48 hrs by disc diffusion method.
Experiment [12] relates to Aspergillus niger. The experiment can be described thus: Antifungal activity against Aspergillus niger at 200 ug/ml after 48 hrs by disc diffusion method.
Experiment [13] deals with Candida albicans. The experiment can be described thus: Antifungal activity against Candida albicans at 100 ug/ml after 48 hrs by disc diffusion method.
Experiment [14] deals with Candida albicans. The experiment in a line: Antifungal activity against Candida albicans at 200 ug/ml after 48 hrs by disc diffusion method.

`CCn1ncn(-c2nc3c(s2)C(C)Sc2sccc2-3)c1=O` (configuration not stated): the zone of inhibition at 200 µg/mL with Staphylococcus aureus [1] was found to be 29 mm; with Bacillus subtilis [4] it was 31 mm; in the experiment on Escherichia coli [6], 27 mm; in the experiment on Klebsiella pneumoniae [8], 26 mm; in the experiment on Fusarium solani [10], 31 mm; with Aspergillus niger [12], 26 mm. For the same compound, in the experiment with Candida albicans [14], the zone of inhibition at 200 µg/mL was 29 mm. In addition, the zone of inhibition at 100 µg/mL in the experiment with Bacillus subtilis [2] is 28 mm; in the experiment on Staphylococcus aureus [3], 25 mm; in the experiment with Escherichia coli [5] it was 22 mm; in the experiment with Klebsiella pneumoniae [7] it was 24 mm; in the experiment on Fusarium solani [9] it was 28 mm; in the experiment on Aspergillus niger [11], 23 mm. The zone of inhibition at 100 µg/mL with Candida albicans [13] came out at 26 mm.
For `Cn1ncn(-c2nc(-c3ccsc3)cs2)c1=O`, the zone of inhibition at 200 µg/mL in the experiment on Staphylococcus aureus [1] stood at 35 mm; with Bacillus subtilis [4], 36 mm; with Escherichia coli [6], 25 mm; in the experiment on Klebsiella pneumoniae [8], 28 mm; in the experiment with Fusarium solani [10], 43 mm; in the experiment with Aspergillus niger [12] it was 42 mm. Besides, the zone of inhibition at 200 µg/mL with Candida albicans [14] came to 40 mm. The zone of inhibition at 100 µg/mL was 34 mm in the experiment with Bacillus subtilis [2]; 32 mm in the experiment with Staphylococcus aureus [3]; 23 mm in the experiment with Escherichia coli [5]; 26 mm with Klebsiella pneumoniae [7]; 40 mm in the experiment on Fusarium solani [9]; 39 mm in the experiment with Aspergillus niger [11]. Moreover, in the experiment with Candida albicans [13], the zone of inhibition at 100 µg/mL was 36 mm.
As to `CC(C)n1ncn(-c2nc(-c3ccsc3)cs2)c1=O`, the zone of inhibition at 200 µg/mL in the experiment on Staphylococcus aureus [1] was 27 mm; in the experiment with Bacillus subtilis [4], 23 mm; in the experiment on Escherichia coli [6] it was 24 mm; in the experiment with Klebsiella pneumoniae [8], 29 mm; in the experiment with Fusarium solani [10] it was 29 mm; in the experiment on Aspergillus niger [12] it was 33 mm. In the experiment on Candida albicans [14], the zone of inhibition at 200 µg/mL was determined as 24 mm. The zone of inhibition at 100 µg/mL in the experiment on Bacillus subtilis [2] was determined as 20 mm; in the experiment on Staphylococcus aureus [3], 25 mm; in the experiment on Escherichia coli [5], 22 mm; in the experiment with Klebsiella pneumoniae [7], 26 mm; in the experiment on Fusarium solani [9] it was 27 mm; in the experiment with Aspergillus niger [11], 30 mm. In addition, the zone of inhibition at 100 µg/mL in the experiment on Candida albicans [13] stood at 22 mm.
